Patent US20020137929A1, “1 - (3-heterocyclylphenyl) isothiourea, -isourea, -guanidine and -amidine herbicidal agents” (Intellectual Property Department, BASF Aktiengesellschaft, priority 1998, published 2002)

Legend:
[1] = tested on: CHEAL (Lambsquarters, Common); assay: Postemergence herbicidal evaluation; assay type: in vivo, Chenopodium album; details: postemergence
Method in brief: (§1)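 Each compound, dispersed in an acetone/water mix (50/50) carrying 0.5% TWEEN 20, is nozzle-sprayed at 40 psi on approximately two-week-old seedlings at about 0.0156–0.500 kg/ha. Plants are assessed 4–5 weeks afterward on a 0–9 scale relative to control; duplicate tests are averaged.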

CYPSE (Flatsedge) = assay: Preemergence weed control under flooded paddy conditions; assay type: in vivo, Cyperus serotinus; details: rated 3-4 weeks after treatment
Method in brief: (§2)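 Using flooded silt loam (water 1.5 to 3 cm deep), seeds sown in the top 0.5 cm were exposed preemergence to compound pipetted into the flood at about 0.0313 to 0.500 kg/ha. Effects were scored 0-9 by eye three to four weeks later.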

CASOB (Sicklepod) = assay: Postemergence herbicidal evaluation; assay type: in vivo, Cassia obtusifolia; details: postemergence
Method in brief: as §1

[2] = tested on: GLXMAW (Soybean, Williams); assay: Preemergence herbicidal evaluation; assay type: in vivo, Glycine max, (L.) Merr. cv Williams; details: rated 4-5 weeks after treatment
Description: Results of herbicide evaluation are expressed on a rating scale (0-9). The scale is based upon a visual observation of plant stand, vigor, malformation, size, chlorosis and overall plant appearance as compared with a control.
The preemergence herbicidal activity of the test compounds of the present invention is exemplified by the following tests in which the seeds of a variety of monocotyledonous and dicotyledonous plants are separately mixed with potting soil and planted on top of approximately one inch of soil in separate pint cups. After planting, the cups are sprayed with the selected aqueous acetone solution containing test compound in sufficient quantity to provide the equivalent of about 0.0156 to 0.500 kg per hectare of test compound per cup. The treated cups are then placed on greenhouse benches, watered and cared for in accordance with conventional greenhouse procedures. From four to five weeks after treatment, the tests are terminated and each cup is examined and rated according to the rating system provided in Example 37.
The compounds evaluated are reported by compound number given in Example 37.

GALAP (Galium) = assay: Postemergence herbicidal evaluation; assay type: in vivo, Galium aparine; details: postemergence
Method in brief: as §1

MOOVA (Monochoria) = assay: Preemergence weed control under flooded paddy conditions; assay type: in vivo, Monochoria vaginalis; details: rated 3-4 weeks after treatment
Method in brief: as §2

AMBEL (Ragweed, Common) = assay: Preemergence herbicidal evaluation; assay type: in vivo, Ambrosia artemisifolia; details: rated 4-5 weeks after treatment
Method in brief: (§3)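 Each species is sown separately in potting soil over roughly an inch of soil before any emergence. The soil surface then receives an aqueous acetone spray delivering about 0.0156 to 0.500 kg/ha of compound. After four to five weeks, injury is scored from 0 to 9 relative to a control.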

SETVI (Foxtail, Green) = assay: Preemergence herbicidal evaluation; assay type: in vivo, Setaria viridis; details: rated 4-5 weeks after treatment
Method in brief: as §3

ORYSAT (Rice, Tebonnet) [3] = assay: Postemergence herbicidal evaluation; assay type: in vivo, Oryza sativa, (L.) Tebonnet; details: postemergence
Method in brief: as §1

ZEAMX (Corn, Field) = assay: Postemergence herbicidal evaluation; assay type: in vivo, Zea mays; details: postemergence
Method in brief: as §1

ORYSAT (Rice, Tebonnet) [4] = assay: Preemergence herbicidal evaluation; assay type: in vivo, Oryza sativa, (L.) Tebonnet; details: rated 4-5 weeks after treatment
Method in brief: as §3

Structure (SMILES): Cn1c(C(F)(F)F)cc(=O)n(-c2cc(N=C3SCC(=O)N3CC(=O)OC3CCCC3)c(Cl)cc2F)c1=O [Compound 120, Cyclopentyl 2-{{2-chloro-5-[3,6-dihydro-3-methyl-2,6-dioxo-4-(trifluoromethyl)-1(2H)-pyrimidinyl]-4-fluorophenyl}imino}-4-oxo-3-thiazolidineacetate]
- Herbicidal rating CHEAL ([1]; rate 0.0156 kg/ha): 9.0
- Herbicidal rating CHEAL ([1]; rate 0.0313 kg/ha): 9.0
- Herbicidal rating CHEAL ([1]; rate 0.0625 kg/ha): 9.0
- herbicidal effect rating, CYPSE (CYPSE (Flatsedge); 0.0313 kg/ha): 0.0
- herbicidal effect rating, CYPSE (CYPSE (Flatsedge); 0.0625 kg/ha): 0.0
- herbicidal effect rating, CYPSE (CYPSE (Flatsedge); 0.1250 kg/ha): 0.0
- herbicidal effect rating, CYPSE (CYPSE (Flatsedge); 0.2500 kg/ha): 3.5
- Herbicidal rating CASOB (CASOB (Sicklepod); rate 0.0156 kg/ha): 3.0
- Herbicidal rating CASOB (CASOB (Sicklepod); rate 0.0313 kg/ha): 5.0
- Herbicidal rating CASOB (CASOB (Sicklepod); rate 0.0625 kg/ha): 8.0
- Preemergence herbicidal rating GLXMAW ([2]; rate 0.0156 kg/ha): 0.0
- Preemergence herbicidal rating GLXMAW ([2]; rate 0.0313 kg/ha): 0.0
- Preemergence herbicidal rating GLXMAW ([2]; rate 0.0625 kg/ha): 0.0
- Preemergence herbicidal rating GLXMAW ([2]; rate 0.1250 kg/ha): 0.0
- Preemergence herbicidal rating GLXMAW ([2]; rate 0.2500 kg/ha): 3.0
- Herbicidal rating GALAP (GALAP (Galium); rate 0.0156 kg/ha): 2.0
- Herbicidal rating GALAP (GALAP (Galium); rate 0.0313 kg/ha): 3.0
- Herbicidal rating GALAP (GALAP (Galium); rate 0.0625 kg/ha): 3.0
- herbicidal effect rating, MOOVA (MOOVA (Monochoria); 0.0313 kg/ha): 8.5
- herbicidal effect rating, MOOVA (MOOVA (Monochoria); 0.0625 kg/ha): 9.0
- herbicidal effect rating, MOOVA (MOOVA (Monochoria); 0.1250 kg/ha): 9.0
- herbicidal effect rating, MOOVA (MOOVA (Monochoria); 0.2500 kg/ha): 9.0
- Preemergence herbicidal rating AMBEL (AMBEL (Ragweed, Common); rate 0.0156 kg/ha): 0.0
- Preemergence herbicidal rating AMBEL (AMBEL (Ragweed, Common); rate 0.0313 kg/ha): 0.0
- Preemergence herbicidal rating AMBEL (AMBEL (Ragweed, Common); rate 0.0625 kg/ha): 3.0
- Preemergence herbicidal rating AMBEL (AMBEL (Ragweed, Common); rate 0.1250 kg/ha): 4.0
- Preemergence herbicidal rating AMBEL (AMBEL (Ragweed, Common); rate 0.2500 kg/ha): 4.0
- Preemergence herbicidal rating SETVI (SETVI (Foxtail, Green); rate 0.0156 kg/ha): 0.0
- Preemergence herbicidal rating SETVI (SETVI (Foxtail, Green); rate 0.0313 kg/ha): 0.0
- Preemergence herbicidal rating SETVI (SETVI (Foxtail, Green); rate 0.0625 kg/ha): 9.0
- Preemergence herbicidal rating SETVI (SETVI (Foxtail, Green); rate 0.1250 kg/ha): 9.0
- Preemergence herbicidal rating SETVI (SETVI (Foxtail, Green); rate 0.2500 kg/ha): 9.0
- Herbicidal rating ORYSAT (ORYSAT (Rice, Tebonnet) [3]; rate 0.0156 kg/ha): 2.0
- Herbicidal rating ORYSAT (ORYSAT (Rice, Tebonnet) [3]; rate 0.0313 kg/ha): 2.5
- Herbicidal rating ORYSAT (ORYSAT (Rice, Tebonnet) [3]; rate 0.0625 kg/ha): 2.5
- Herbicidal rating ZEAMX (ZEAMX (Corn, Field); rate 0.0156 kg/ha): 6.0
- Herbicidal rating ZEAMX (ZEAMX (Corn, Field); rate 0.0313 kg/ha): 7.0
- Herbicidal rating ZEAMX (ZEAMX (Corn, Field); rate 0.0625 kg/ha): 8.0
- Preemergence herbicidal rating ORYSAT (ORYSAT (Rice, Tebonnet) [4]; rate 0.0156 kg/ha): 0.0
- Preemergence herbicidal rating ORYSAT (ORYSAT (Rice, Tebonnet) [4]; rate 0.0313 kg/ha): 0.0
- Preemergence herbicidal rating ORYSAT (ORYSAT (Rice, Tebonnet) [4]; rate 0.0625 kg/ha): 0.0
- Preemergence herbicidal rating ORYSAT (ORYSAT (Rice, Tebonnet) [4]; rate 0.1250 kg/ha): 0.0
- Preemergence herbicidal rating ORYSAT (ORYSAT (Rice, Tebonnet) [4]; rate 0.2500 kg/ha): 0.0
